± gives the expanded uncertainty stated by the source.
Test: xn = mol fraction of the nth substance listed
Details: Fluid (supercritical or subcritical phases), Buoyancy - hydrostatic balance with magnetic suspension - one sinker

In the case of `C` [methane] + O=C=O, the mass density (303.29 K, 11998 kPa, x2 = 0.8988) is reported as 626.792 ± 6.3 kg/m3, the mass density (303.29 K, 15006 kPa, x2 = 0.3997) is reported as 237.974 ± 1.7 kg/m3 and the mass density (305.01 K, 18003 kPa, x2 = 0.8988) is reported as 732.397 ± 4.9 kg/m3. The mass density (305.04 K, 7997 kPa, x2 = 0.8988) was 244.829 ± 2.6 kg/m3, the mass density (305.06 K, 9978 kPa, x2 = 0.8988) was 474.418 ± 7.9 kg/m3 and the mass density (305.08 K, 11001 kPa, x2 = 0.3997) was 159.477 ± 1 kg/m3. It also gave a mass density (305.09 K, 12002 kPa, x2 = 0.0998) of 107.694 ± 0.75 kg/m3, a mass density (305.1 K, 4001 kPa, x2 = 0.3997) of 47.504 ± 0.26 kg/m3 and a mass density (305.1 K, 17995 kPa, x2 = 0.6015) of 408.107 ± 3.1 kg/m3. The mass density (305.11 K, 3997 kPa, x2 = 0.7985) was 72.035 ± 0.34 kg/m3, the mass density (305.11 K, 5997 kPa, x2 = 0.0998) was 49.434 ± 0.32 kg/m3 and the mass density (305.11 K, 6003 kPa, x2 = 0.7985) was 122.855 ± 0.66 kg/m3. For the same compound, the mass density (305.12 K, 3998 kPa, x2 = 0.8988) was 79.325 ± 0.38 kg/m3, the mass density (305.12 K, 5006 kPa, x2 = 0.7985) was 95.778 ± 0.47 kg/m3 and the mass density (305.13 K, 6992 kPa, x2 = 0.0998) was 58.605 ± 0.38 kg/m3. The mass density (305.13 K, 6994 kPa, x2 = 0.8988) was 182.804 ± 1.3 kg/m3, the mass density (305.13 K, 9002 kPa, x2 = 0.0998) was 77.799 ± 0.52 kg/m3 and the mass density (305.13 K, 11012 kPa, x2 = 0.6015) was 223.4 ± 1.7 kg/m3. It also gave a mass density (305.13 K, 14994 kPa, x2 = 0.3997) of 233.75 ± 1.6 kg/m3, a mass density (305.14 K, 5001 kPa, x2 = 0.6015) of 76.729 ± 0.38 kg/m3 and a mass density (305.14 K, 14994 kPa, x2 = 0.7985) of 546.063 ± 4.5 kg/m3. It also gave a mass density (305.15 K, 3979 kPa, x2 = 0.6015) of 58.587 ± 0.29 kg/m3, a mass density (305.15 K, 6000 kPa, x2 = 0.6015) of 96.024 ± 0.5 kg/m3 and a mass density (305.15 K, 7998 kPa, x2 = 0.0998) of 68.122 ± 0.45 kg/m3. For the same compound, the mass density (305.15 K, 9004 kPa, x2 = 0.6015) was 165.984 ± 1.1 kg/m3, the mass density (305.15 K, 11001 kPa, x2 = 0.2017) was 116.026 ± 0.77 kg/m3 and the mass density (305.15 K, 11998 kPa, x2 = 0.2017) was 128.322 ± 0.86 kg/m3. The mass density (305.15 K, 12006 kPa, x2 = 0.3997) was 178.104 ± 1.2 kg/m3, the mass density (305.16 K, 3003 kPa, x2 = 0.0998) was 23.496 ± 0.17 kg/m3 and the mass density (305.16 K, 4003 kPa, x2 = 0.0998) was 31.879 ± 0.22 kg/m3. The mass density (305.16 K, 8002 kPa, x2 = 0.2017) was 80.173 ± 0.49 kg/m3, the mass density (305.16 K, 8998 kPa, x2 = 0.3997) was 123.489 ± 0.72 kg/m3 and the mass density (305.16 K, 10996 kPa, x2 = 0.8988) was 555.932 ± 7.1 kg/m3. The mass density (305.16 K, 14996 kPa, x2 = 0.0998) was 137.438 ± 0.97 kg/m3, the mass density (305.16 K, 15000 kPa, x2 = 0.6015) was 340.932 ± 2.8 kg/m3 and the mass density (305.16 K, 18000 kPa, x2 = 0.2017) was 199.543 ± 1.4 kg/m3. For the same compound, the mass density (305.17 K, 6999 kPa, x2 = 0.6015) was 117.142 ± 0.65 kg/m3, the mass density (305.17 K, 7000 kPa, x2 = 0.7985) was 154.794 ± 0.95 kg/m3 and the mass density (305.17 K, 10003 kPa, x2 = 0.0998) was 87.669 ± 0.6 kg/m3. The mass density (305.17 K, 10999 kPa, x2 = 0.0998) was 97.609 ± 0.67 kg/m3, the mass density (305.17 K, 18001 kPa, x2 = 0.0998) was 165.624 ± 1.2 kg/m3 and the mass density (305.18 K, 4001 kPa, x2 = 0.2017) was 37.03 ± 0.22 kg/m3. For the same compound, the mass density (305.18 K, 4996 kPa, x2 = 0.3997) was 60.999 ± 0.32 kg/m3, the mass density (305.18 K, 5001 kPa, x2 = 0.2017) was 47.235 ± 0.28 kg/m3 and the mass density (305.18 K, 6000 kPa, x2 = 0.3997) was 75.426 ± 0.41 kg/m3. The mass density (305.18 K, 7002 kPa, x2 = 0.3997) was 90.651 ± 0.5 kg/m3, the mass density (305.18 K, 8000 kPa, x2 = 0.6015) was 140.462 ± 0.83 kg/m3 and the mass density (305.18 K, 9997 kPa, x2 = 0.3997) was 141.056 ± 0.86 kg/m3. The mass density (305.18 K, 11999 kPa, x2 = 0.7985) was 429.815 ± 4.5 kg/m3, the mass density (305.18 K, 14999 kPa, x2 = 0.2017) was 165.099 ± 1.2 kg/m3 and the mass density (305.18 K, 18002 kPa, x2 = 0.7985) was 608.035 ± 4.3 kg/m3. For the same compound, the mass density (305.19 K, 7000 kPa, x2 = 0.2017) was 68.786 ± 0.42 kg/m3, the mass density (305.19 K, 9001 kPa, x2 = 0.2017) was 91.841 ± 0.57 kg/m3 and the mass density (305.19 K, 9001 kPa, x2 = 0.7985) was 243.07 ± 2.1 kg/m3. It also gave a mass density (305.19 K, 12005 kPa, x2 = 0.6015) of 253.791 ± 2.1 kg/m3, a mass density (305.2 K, 5004 kPa, x2 = 0.8988) of 106.835 ± 0.57 kg/m3 and a mass density (305.2 K, 10000 kPa, x2 = 0.2017) of 103.792 ± 0.67 kg/m3. The mass density (305.2 K, 11001 kPa, x2 = 0.7985) was 369.844 ± 4.1 kg/m3, the mass density (305.2 K, 11998 kPa, x2 = 0.8988) was 604.408 ± 6.4 kg/m3 and the mass density (305.21 K, 8996 kPa, x2 = 0.8988) was 345.688 ± 5.7 kg/m3. It also gave a mass density (305.21 K, 15000 kPa, x2 = 0.8988) of 683.999 ± 5.4 kg/m3, a mass density (305.22 K, 6000 kPa, x2 = 0.2017) of 57.81 ± 0.35 kg/m3 and a mass density (305.22 K, 8006 kPa, x2 = 0.3997) of 106.718 ± 0.61 kg/m3. The mass density (305.22 K, 10006 kPa, x2 = 0.6015) was 193.541 ± 1.4 kg/m3, the mass density (305.23 K, 5002 kPa, x2 = 0.0998) was 40.525 ± 0.27 kg/m3 and the mass density (305.23 K, 6002 kPa, x2 = 0.8988) was 139.912 ± 0.94 kg/m3. The mass density (305.23 K, 10000 kPa, x2 = 0.7985) was 303.258 ± 3.2 kg/m3 and the mass density (305.24 K, 8000 kPa, x2 = 0.7985) was 193.79 ± 1.4 kg/m3.

Source: the NIST ThermoML archive (doi:10.1016/j.jct.2016.11.009)
